Results published in US7385041B2, “Dual functioning excipient for metal chelate contrast agents” (Bracco International B.V., priority 1990, dated 2008).

Tested on: Charles River CD-1 mice
Assay: Intravenous acute tolerance in mice (LD50)
Protocol: The relative toxicities of free metal, free ligand, metal chelate contrast agent and excipient of the present invention were determined by injecting samples of each into the tail vein of Charles River CD-1 mice (18-23 g, 25-35 days) at 0.02 mL/g. The observation period was 14 days.

[1] = intravenous (tail vein) at 0.02 mL/g, CD-1 mice, 14 days observation, physiologic pH

Structure (SMILES)	LD50 [1]	LD50 (mouse, in vivo, iv)	Tolerance (in words) (summary of Table 1 data, intravenous in mice)
[Ca+2].[Cl-].[Cl-] [CaCl2]	1.5 mmol/kg	–	–
CC(O)CN1CCN(CC(=O)O)CCN(CC(=O)O)CCN(CC(=O)O)CC1.[Gd+3] (stereo not shown) [Gd(HP-DO3A), Gadolinium(III) 1,4,7-tris(carboxymethyl)-10-(2′-hydroxypropyl)-1,4,7,10-tetraazacyclododecane]	10 mmol/kg	–	–
CC(O)CN1CCN(CC(=O)O)CCN(CC(=O)O)CCN(CC(=O)O)CC1 (stereo not shown) [HP-DO3A, 1,4,7-tris-(carboxymethyl)-10-(2′-hydroxypropyl)-1,4,7,10-tetraazacyclododecane]	–	0.11 mmol/kg	–
O=C([O-])CN1CCNCCN(CC(=O)[O-])CCN(CC(=O)[O-])CC1.[Gd+3] [Gd(DO3A)]	5.7 mmol/kg	–	highly tolerated
CC(O)CN1CCN(CC(=O)[O-])CCN(CC(=O)[O-])CCN(CC(=O)[O-])CC1.CC(O)CN1CCN(CC(=O)[O-])CCN(CC(=O)[O-])CCN(CC(=O)[O-])CC1.[Ca+2].[Ca+2].[Ca+2] (stereo not shown) [Ca[Ca(HP-DO3A)]2, Calcium bis[1,4,7-tris(carboxymethyl)-10-(2′-hydroxy)propyl-1,4,7,10-tetraazacyclododecanato-calcium(II)]]	1.3 mmol/kg	–	–
O=C([O-])CN1CCNCCN(CC(=O)[O-])CCN(CC(=O)[O-])CC1.O=C([O-])CN1CCNCCN(CC(=O)[O-])CCN(CC(=O)[O-])CC1.[Ca+2].[Ca+2].[Ca+2] [Ca[Ca(DO3A)]2, Calcium bis[1,4,7,10-tetraazacyclododecane-1,4,7-triacetatocalcium(II)]]	1.6 mmol/kg	–	–
O=C(O)CN1CCN(CC(=O)O)CCN(CC(=O)O)CCN(CC(=O)O)CC1 [DOTA, 1,4,7,10-tetraazacyclododecane-N,N′N″,N″′-tetraacetic acid]	0.18 mmol/kg	–	–
O=C(O)CN1CCNCCN(CC(=O)O)CCN(CC(=O)O)CC1 [DO3A, 1,4,7,10-tetraazacyclododecane-1,4,7-triacetic acid]	–	0.12 mmol/kg	–
[Gd+3].[OH-].[OH-].[OH-] [Gd(OH)3]	0.1 mmol/kg	–	–
